Source: ChEMBL document CHEMBL2406933, “Discovery of Protein-Protein Interaction Inhibitors of Replication Protein A” (ACS Med Chem Lett, 2013)
Calls of active or inactive are those of the source. The calls are words filed in the database; no cut-off is given here.

target: T1, Replication protein A 70 kDa DNA-binding subunit (Homo sapiens, UniProt P27694); experiment: Binding affinity to human RPA (1 to 422) containing RPA70N and RPA70NAB assessed as inhibition of interaction with FITC-Ahx-DFTADDLEELDTLAS-NH2 after 1 hr by fluorescence polarization anisotropy assay
T1 sequence (P27694 whole entry): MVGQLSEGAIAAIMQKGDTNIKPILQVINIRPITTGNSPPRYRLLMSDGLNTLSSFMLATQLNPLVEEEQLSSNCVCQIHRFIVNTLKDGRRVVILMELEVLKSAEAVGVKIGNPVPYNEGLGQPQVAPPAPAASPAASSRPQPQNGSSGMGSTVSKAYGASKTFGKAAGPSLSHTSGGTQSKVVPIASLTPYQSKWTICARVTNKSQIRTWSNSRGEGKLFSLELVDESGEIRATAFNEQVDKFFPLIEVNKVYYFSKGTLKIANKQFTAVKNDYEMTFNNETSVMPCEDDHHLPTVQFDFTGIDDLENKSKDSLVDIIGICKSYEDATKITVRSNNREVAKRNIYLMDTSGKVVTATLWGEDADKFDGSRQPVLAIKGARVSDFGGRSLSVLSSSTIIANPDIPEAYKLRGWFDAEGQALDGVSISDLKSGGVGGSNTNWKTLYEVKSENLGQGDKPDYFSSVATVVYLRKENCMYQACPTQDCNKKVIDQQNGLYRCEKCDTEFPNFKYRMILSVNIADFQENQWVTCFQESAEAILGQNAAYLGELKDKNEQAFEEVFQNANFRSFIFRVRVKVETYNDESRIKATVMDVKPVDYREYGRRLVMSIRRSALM

Row | Kd [µM] | SMILES
1 | 10 | O=C(O)c1sc2cc(-n3c(S)nnc3-c3ccc(Br)c(Cl)c3)ccc2c1Cl
2 | 17 | O=C(O)c1sc2cc(-n3c(S)nnc3-c3ccc(Cl)c(Cl)c3)ccc2c1Cl

system: not listed separately; experiment: Inhibition of human RPA binding to [32P]-ssDNA overexpressed in Escherichia coli by EMSA

Row | IC50 [µM] | SMILES
3 | 40 | CCOc1ccc2cc(C3CN(C(=O)CCC(=O)O)N=C3c3ccc(Br)cc3)c(Cl)nc2c1 (centres undefined)

species on record: Homo sapiens; experiment: Inhibition of full length RPA (unknown origin) binding to ssDNA up to 100 uM preincubated for 5 mins prior to substrate addition measured after 30 mins by EMSA

Row | inhibition | SMILES
4 | inactive | O=C(O)c1sc2cc(-n3c(S)nnc3-c3ccc(Br)c(Cl)c3)ccc2c1Cl
5 | inactive | O=C(O)c1sc2cc(-n3c(S)nnc3-c3ccc(Cl)c(Cl)c3)ccc2c1Cl

target: T1, Replication protein A 70 kDa DNA-binding subunit; experiment: Binding affinity to human RPA70N assessed as inhibition of interaction with FITC-Ahx-DFTADDLEELDTLAS-NH2 after 1 hr by fluorescence polarization anisotropy assay

Row | Kd [µM] | SMILES
6 | 63 | O=C(O)c1sc2cc(-n3c(-c4cccc(Oc5ccccc5)c4)n[nH]c3=S)ccc2c1Cl
7 | 47 | O=C(O)CSc1nnc(-c2ccc3ccccc3c2)n1-c1ccc(Cl)c(Cl)c1
8 | > 250 | Cc1ccc(-c2nnc(S)n2-c2ccc3cc(C(=O)O)sc3c2)cc1
9 | 49 | O=C(O)c1cc2ccc(-n3c(-c4cccc(Br)c4)n[nH]c3=S)cc2s1
10 | 35 | O=C(O)c1cc2ccc(-n3c(-c4cc(Cl)cc(Cl)c4)n[nH]c3=S)cc2s1
11 | 178 | O=C(O)CSc1nnc(-c2ccc([N+](=O)[O-])cc2)n1-c1ccc(Cl)c(Cl)c1
12 | 43 | O=C(O)c1sc2cc(-n3c(-c4ccc5ccccc5c4)n[nH]c3=S)ccc2c1Cl
13 | 164 | COc1ccc(-c2nnc(SCC(=O)O)n2-c2ccc(Cl)c(Cl)c2)cc1
14 | > 250 | O=C(O)c1cc2ccc(-n3c(S)nnc3-c3ccccc3)cc2s1
15 | 130 | O=C(O)c1sc2cc(-n3c(S)nnc3-c3ccccc3)ccc2c1Cl
16 | > 250 | Cc1cccc(-c2n[nH]c(=S)n2-c2ccc3cc(C(=O)O)sc3c2)c1
17 | 71 | O=C(O)c1cc2ccc(-n3c(-c4ccc(Br)cc4)n[nH]c3=S)cc2s1
18 | 22 | O=C(O)c1cc2ccc(-n3c(S)nnc3-c3ccc(Cl)c(Cl)c3)cc2s1
19 | 66 | Cc1ccccc1-c1nnc(S)n1-c1ccc2c(Cl)c(C(=O)O)sc2c1
20 | 83 | Cc1cccc(-c2n[nH]c(=S)n2-c2ccc3c(Cl)c(C(=O)O)sc3c2)c1
21 | 58 | O=C(O)CSc1nnc(-c2cc3ccccc3s2)n1-c1ccc(Cl)c(Cl)c1
22 | 31 | Cc1cc(-c2nnc(S)n2-c2ccc3c(Cl)c(C(=O)O)sc3c2)ccc1Br
23 | 42 | O=C(O)c1sc2cc(-n3c(S)nnc3-c3ccc(Br)cc3)ccc2c1Cl
24 | 1850 | Clc1ccc(-c2nn[nH]n2)cc1
25 | > 250 | O=C(O)c1sc2cc(-n3c(S)nnc3-c3c[nH]c4ccccc34)ccc2c1Cl
26 | 58 | O=C(O)c1sc2cc(-n3c(S)nnc3-c3cccc(Br)c3)ccc2c1Cl
27 | 16 | O=C(O)c1sc2cc(-n3c(-c4ccc(Cl)c(Br)c4)n[nH]c3=S)ccc2c1Cl
28 | > 250 | O=C(O)CSc1nnc(-c2ccccc2Cl)n1-c1cccc(Cl)c1
29 | 11 | O=C(O)c1sc2cc(-n3c(S)nnc3-c3ccc(Br)c(Cl)c3)ccc2c1Cl

Row | Kd [µM] | SMILES
30 | 104 | O=C(O)c1cc2ccc(-n3c(-c4cccc(Oc5ccccc5)c4)n[nH]c3=S)cc2s1
31 | 48 | Cc1cccc(-c2n[nH]c(=S)n2-c2ccc3c(Cl)c(C(=O)O)sc3c2)c1Br
32 | 92 | Cc1ccc(-c2n[nH]c(=S)n2-c2ccc3c(Cl)c(C(=O)O)sc3c2)cc1
33 | > 250 | O=C(O)CSc1nnc(-c2ccc(F)cc2)n1-c1cccc(Cl)c1
34 | 12 | O=C(O)c1cc2ccc(-n3c(S)nnc3-c3ccc(Br)c(Cl)c3)cc2s1
35 | > 250 | COc1ccc(-c2nnc(SCC(=O)O)n2-c2cccc(Cl)c2)cc1
36 | 78 | O=C(O)c1cc2ccc(-n3c(S)nnc3-c3ccc(Cl)cc3)cc2s1
37 | 47 | O=C(O)c1sc2cc(-n3c(S)nnc3-c3ccc(F)cc3)ccc2c1Cl
38 | 109 | Nc1ccc(-c2nnc(SCC(=O)O)n2-c2ccc(Cl)c(Cl)c2)cc1
39 | 25 | O=C(O)c1sc2cc(-n3c(S)nnc3C3CCCCC3)ccc2c1Cl
40 | 18 | Cc1ccc2c(Cl)c(-c3nnc(SCC(=O)O)n3-c3ccc(Cl)c(Cl)c3)sc2c1
41 | 15 | O=C(O)c1sc2cc(-n3c(-c4cc(Cl)cc(Cl)c4)n[nH]c3=S)ccc2c1Cl
42 | > 250 | O=C(O)c1cc2ccc(-n3c(-c4ccc(F)cc4)n[nH]c3=S)cc2s1
43 | > 250 | O=C(O)CSc1nnc(-c2ccccc2Br)n1-c1cccc(Cl)c1
44 | > 250 | COc1ccc(-c2nnc(SCC(=O)O)n2-c2ccc(Cl)cc2)cc1
45 | 233 | O=C(O)CSc1nnc(-c2ccc(O)cc2)n1-c1ccc(Cl)c(Cl)c1
46 | 135 | O=C(O)CSc1nnc(-c2sc3ccccc3c2Cl)n1-c1ccccc1
47 | > 250 | Cc1ccccc1-c1nnc(SCC(=O)O)n1-c1cccc(Cl)c1
48 | 52 | O=C(O)c1sc2cc(-n3c(S)nnc3-c3ccc(Cl)cc3)ccc2c1Cl
49 | 11 | O=C(O)c1sc2cc(-n3c(S)nnc3-c3ccc(Cl)c(Cl)c3)ccc2c1Cl
50 | > 250 | Cc1ccccc1-c1nnc(S)n1-c1ccc2cc(C(=O)O)sc2c1
51 | > 250 | O=C(O)CSc1nnc(-c2ccc(F)cc2)n1-c1ccc(Cl)cc1
52 | 46 | O=C(O)CSc1nnc(-c2sc3ccccc3c2Cl)n1-c1ccc(Cl)c(Cl)c1

Row | SMILES | Kd [µM]
53 | O=C(O)c1sc2cc(Cl)ccc2c1Cl | 627

target: T1, Replication protein A 70 kDa DNA-binding subunit; experiment: Binding affinity to human RPA70N expressed in Escherichia coli BL21 (DE3) assessed as inhibition of interaction with FITC-Ahx-DFTADDLEELDTLAS-NH2 after 1 hr by fluorescence polarization anisotropy assay

Row | Kd [µM] | SMILES
54 | 18.3 | CC(C)C1=C[C@]23CC[C@@H]4[C@](C)(CCC[C@@]4(C)C(=O)O)[C@H]2C[C@@H]1[C@@H](C(=O)O)[C@@H]3C(=O)O
